Measurements: ChEMBL document CHEMBL4616643, “Cytotoxic and anti-inflammatory effects of lignans and diterpenes from Cupressus macrocarpa” (Bioorg Med Chem Lett, 2020)
≈ marks a conversion by molar mass, not a printed value.

What was measured:
MDA-MB-231 = experiment: Antiproliferative activity against human MDA-MB-231 cells assessed as inhibition of cell viability by MTT assay; assay type: functional, cell-based
A549 = experiment: Antiproliferative activity against human A549 cells assessed as inhibition of cell viability by MTT assay; assay type: functional, cell-based
HepG2 = experiment: Antiproliferative activity against human HepG2 cells assessed as inhibition of cell viability by MTT assay; assay type: functional, cell-based
Neutrophil [1] = experiment: Anti-inflammatory activity against human neutrophils assessed as inhibition of fMLF/CB-induced superoxide anion generation preincubated for 5 mins followed by fMLF addition after priming with CB for 3 mins and measured after 10 mins by spectrophotometric analysis; assay type: functional, cell-based
Neutrophil [2] = experiment: Anti-inflammatory activity against human neutrophils assessed as inhibition of fMLF/CB-induced superoxide anion generation at 10 uM preincubated for 5 mins followed by fMLF addition after priming with CB for 3 mins and measured after 10 mins by spectrophotometric analysis relative to control; assay type: functional
Neutrophil [3] = experiment: Anti-inflammatory activity against human neutrophils assessed as inhibition in fMLF/CB-induced elastase release at 10 uM preincubated for 5 mins followed by fMLF addition after priming with CB for 3 mins and measured after 10 mins by spectrophotometric analysis relative to control; assay type: functional
Neutrophil [4] = experiment: Anti-inflammatory activity against human neutrophils assessed as inhibition of fMLF/CB-induced elastase release preincubated for 5 mins followed by fMLF addition after priming with CB for 3 mins and measured after 10 mins by spectrophotometric analysis; assay type: functional, cell-based
[5] = Homo sapiens, MDA-MB-231, read-out: IC50
[6] = Homo sapiens, A549, read-out: IC50
[7] = Homo sapiens, HepG2, read-out: IC50

SMILES	IC50 (MDA-MB-231; [5]) [µg/mL]	IC50 (A549; [6]) [µg/mL]	inhibition at 10 µM (Neutrophil [2]) [%]	inhibition at 10 µM (Neutrophil [3]) [%]	other results
COc1cccc2c1C(=O)c1c(O)c3c(c(O)c1C2=O)C[C@@](O)(C(=O)CO)C[C@@H]3O[C@H]1C[C@H](N)[C@H](O)[C@H](C)O1 [DOXORUBICIN]	0.6 (≈ 1.1 µM)	0.057 (≈ 0.105 µM)	–	–	–
C=C1CC[C@@H]2[C@](C)(CCC[C@]2(C)C(=O)O)[C@H]1CC/C(C)=C/CO [ISOCUPRESSIC ACID]	–	–	78	19.9	IC50 (HepG2; hepg2): Not Active; IC50 (MDA-MB-231; mda-mb-231): Not Active; IC50 (A549; a549): Not Active; IC50 (Neutrophil [1]): 4.8 µM
C=C(C=O)CC[C@H]1C(=C)CC[C@@H]2[C@]1(C)CCC[C@]2(C)C(=O)O	14.1 (≈ 46.3 µM)	–	–	–	–
COc1cc(C[C@H]2COC(=O)[C@@H]2Cc2ccc(O)c(OC)c2)ccc1O [MATAIRESINOL]	–	–	95.2	61.9	IC50 (HepG2; [7]): 15.1 µg/mL (≈ 42.1 µM); IC50 (Neutrophil [1]): 2.7 µM; IC50 (Neutrophil [4]): 6.6 µM
COc1cc(C[C@H]2C(=O)OC[C@@H]2Cc2ccc(OC)c(OC)c2)ccc1O [ARCTIGENIN]	1.1 (≈ 2.95 µM)	0.8 (≈ 2.15 µM)	–	–	IC50 (HepG2; [7]): 2.8 µg/mL (≈ 7.52 µM)
COc1cc([C@@H]2c3cc4c(cc3C[C@H]3COC(=O)[C@@H]32)OCO4)cc(OC)c1OC [DESOXYPODOPHYLLOTOXIN]	0.07 (≈ 0.176 µM)	0.004 (≈ 0.01 µM)	–	–	IC50 (HepG2; [7]): 14.5 µg/mL (≈ 36.4 µM)
C=C(C=O)CC[C@H]1C(=C)CC[C@@H]2[C@]1(C)CCC[C@@]2(C)O	14.8 (≈ 53.5 µM)	–	–	–	–
C=C1CC[C@@H]2[C@](C)(CCC[C@]2(C)C(=O)O)[C@H]1CC/C(C)=C/COC(C)=O	14.8 (≈ 40.8 µM)	8.9 (≈ 24.6 µM)	–	–	–
C=C(CC[C@H]1C(=C)CC[C@H]2[C@@](C)(CO)CCC[C@]12C)C(=O)CO	19.9 (≈ 62.1 µM)	19.8 (≈ 61.8 µM)	–	–	–
C=C1CC[C@@H]2[C@](C)(CO)CCC[C@@]2(C)[C@@H]1CCC(C)=O	–	–	33.5	15.7	–
C=C1CC[C@H]2[C@@](C)(CO)CCC[C@]2(C)[C@H]1CC/C(C)=C/CO	–	–	50.7	22.3	IC50 (Neutrophil [1]): 9.6 µM
